molecular target: T1, hM5 (Homo sapiens, UniProt P08912); assay: Calcium mobilization concentration-response (IC50 vs EC80 acetylcholine), CHO hM5; type: cell-based; conditions: CELL LINE hM5; calcium mobilization, EC80 acetylcholine addition; read-out: IC50
T1 construct: expressed in transfected cells
T1 sequence (P08912 1-532): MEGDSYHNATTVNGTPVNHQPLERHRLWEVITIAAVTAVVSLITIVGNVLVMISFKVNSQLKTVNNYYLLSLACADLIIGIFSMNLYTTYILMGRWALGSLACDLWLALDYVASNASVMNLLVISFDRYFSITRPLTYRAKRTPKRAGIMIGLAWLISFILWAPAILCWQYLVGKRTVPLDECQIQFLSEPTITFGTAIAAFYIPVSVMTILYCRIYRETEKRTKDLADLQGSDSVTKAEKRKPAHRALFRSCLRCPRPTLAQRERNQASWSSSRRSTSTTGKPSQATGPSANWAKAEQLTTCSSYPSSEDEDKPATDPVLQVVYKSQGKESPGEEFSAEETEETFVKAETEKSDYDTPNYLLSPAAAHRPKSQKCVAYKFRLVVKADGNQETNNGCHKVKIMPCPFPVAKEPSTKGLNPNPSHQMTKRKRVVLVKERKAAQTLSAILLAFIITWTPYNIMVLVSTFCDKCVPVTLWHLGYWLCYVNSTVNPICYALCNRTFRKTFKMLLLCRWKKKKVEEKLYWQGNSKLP
Summary of the method: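 IC50 values derive from percent maximal acetylcholine response after an EC80 ACh addition, measured as kinetic calcium fluorescence (static ratio, max−min). Test compounds were added 140 s before agonist. Cells: stable hM5-CHO in HEPES-buffered HBSS with 2.5 mM probenecid, pH 7.4; ≥3 independent triplicate determinations.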

How did the IC50 turn out when `CN1CCOc2cc(C3=CCN(S(=O)(=O)c4cnn(C)c4Cl)CC3)c(Cl)cc21` [Compound 377, 6-chloro-7-(1-((5-chloro-1-methyl-1H-pyrazol-4-yl)sulfonyl)-1,2,3,6-tetrahydropyridin-4-yl)-4-methyl-3,4-dihydro-2H-benzo[b][1,4]oxazine] was run?
The IC50 was 1430 nM.

With `Cc1cc2ncnn2cc1C1CCN(S(=O)(=O)c2cn(C)nc2C(F)(F)F)CC1` [Compound 101, 7-methyl-6-(1-((1-methyl-3-(trifluoromethyl)-1H-pyrazol-4-yl)sulfonyl)piperidin-4-yl)-[1,2,4]triazolo[1,5-a]pyridine] as the compound, how does the IC50 read?
The IC50 was 2100 nM.

How did the IC50 turn out when `[2H]C([2H])([2H])n1cc(S(=O)(=O)N2CCC(c3cn4ncnc4cc3C)CC2)c(C2CC2)n1` [Compound 132, 6-(1-((3-cyclopropyl-1-(methyl-d3)-1H-pyrazol-4-yl)sulfonyl)piperidin-4-yl)-7-methyl-[1,2,4]triazolo[1,5-a]pyridine] was run?
Its IC50 is 1300 nM.

For `Cc1cc2ncnn2nc1C1=CCN(S(=O)(=O)c2cnn(C)c2C)CC1` [Compound 169, 6-(1-((1,5-dimethyl-1H-pyrazol-4-yl)sulfonyl)-1,2,3,6-tetrahydropyridin-4-yl)-7-methyl-[1,2,4]triazolo[1,5-b]pyridazine], which IC50 is on record?
Its IC50 is 974 nM.

How did the IC50 turn out when `Cc1cc2ncnn2nc1C1CCN(S(=O)(=O)c2cnn3c2CCC3)CC1` [Compound 187, 6-(1-((5,6-dihydro-4H-pyrrolo[1,2-b]pyrazol-3-yl)sulfonyl)piperidin-4-yl)-7-methyl-[1,2,4]triazolo[1,5-b]pyridazine] was run?
Its IC50 is 23 nM.

With `O=S(=O)(c1ccc2c(c1)CCO2)N1CCC(c2cc(-c3ccco3)n[nH]2)CC1` [Compound 4, 1-((2,3-dihydrobenzofuran-5-yl)sulfonyl)-4-(3-(furan-2-yl)-1H-pyrazol-5-yl)piperidine] as the compound, how does the IC50 read?
The IC50 was over 10000 nM.

For `Cc1cc2nccn2cc1C1CCN(S(=O)(=O)c2cc3c(cc2F)OCC3)CC1` [Compound 67, 6-(1-((6-fluoro-2,3-dihydrobenzofuran-5-yl)sulfonyl)piperidin-4-yl)-7-methylimidazo[1,2-a]pyridine], which IC50 is on record?
The IC50 was 2600 nM.

For `Cc1ncc(S(=O)(=O)N2CC=C(c3cc4ncnn4cc3Cl)CC2)n1C` [Compound 223, 6-chloro-7-(1-((1,2-dimethyl-1H-imidazol-5-yl)sulfonyl)-1,2,3,6-tetrahydropyridin-4-yl)-[1,2,4]triazolo[1,5-a]pyridine], which IC50 is on record?
The IC50 was 660 nM.

For `Cc1nc2cc(C)c(C3CCN(S(=O)(=O)c4cnn(C)c4C)CC3)cn2n1` [Compound 200, 6-(1-((1,5-dimethyl-1H-pyrazol-4-yl)sulfonyl)piperidin-4-yl)-2,7-dimethyl-[1,2,4]triazolo[1,5-a]pyridine], which IC50 is on record?
The IC50 was 899 nM.

How did the IC50 turn out when `O=S(=O)(c1cnn2c1OCCC2)N1CCC(c2ccncc2)CC1` [Compound 367, 3-((4-(pyridin-4-yl)piperidin-1-yl)sulfonyl)-6,7-dihydro-5H-pyrazolo[5,1-b][1,3]oxazine] was run?
The IC50 was over 10000 nM.

`Cc1nc2cc(C)c(C3CCN(S(=O)(=O)c4ccc5ncsc5c4)CC3)cn2n1` [Compound 78, 6-((4-(2,7-dimethyl-[1,2,4]triazolo[1,5-a]pyridin-6-yl)piperidin-1-yl)sulfonyl)benzo[d]thiazole] was tested. Which IC50 did it give?
The IC50 was over 10000 nM.

Which IC50 does the source give for `O=S(=O)(c1ccc2c(c1)CCO2)N1CCC(c2nnc(NCc3ccccc3)cc2C(F)(F)F)CC1` [Compound 44] here?
The IC50 was 5600 nM.

How did the IC50 turn out when `Cc1cc2ncnn2nc1C1CCN(S(=O)(=O)c2c(C)n[nH]c2C)CC1` [Compound 180, 6-(1-((3,5-dimethyl-1H-pyrazol-4-yl)sulfonyl)piperidin-4-yl)-7-methyl-[1,2,4]triazolo[1,5-b]pyridazine] was run?
The IC50 was over 10000 nM.

With `O=S(=O)(c1ccc2c(c1)CCO2)N1CCC(c2ncc3cc[nH]c3n2)CC1` [Compound 33, 2-(1-((2,3-dihydrobenzofuran-5-yl)sulfonyl)piperidin-4-yl)-7H-pyrrolo[2,3-d]pyrimidine] as the compound, how does the IC50 read?
Its IC50 is over 10000 nM.

`Cc1cc2c(cc1C1CCN(S(=O)(=O)c3cnn(C)c3Cl)CC1)OCO2` [Compound 372, 1-((5-chloro-1-methyl-1H-pyrazol-4-yl)sulfonyl)-4-(6-methylbenzo[d][1,3]dioxol-5-yl)piperidine] was tested. Which IC50 did it give?
The IC50 was 14 nM.

How did the IC50 turn out when `Cc1cc2nccn2nc1C1CCN(S(=O)(=O)c2cnc(C)n2C)CC1` [Compound 252, 6-(1-((1,2-dimethyl-1H-imidazol-5-yl)sulfonyl)piperidin-4-yl)-7-methylimidazo[1,2-b]pyridazine] was run?
Its IC50 is 123 nM.

With `Cc1c(C2CCN(S(=O)(=O)c3cnn4c3CCCC4)CC2)cn2ncnc2c1F` [Compound 305, 8-fluoro-7-methyl-6-(1-((4,5,6,7-tetrahydropyrazolo[1,5-a]pyridin-3-yl)sulfonyl)piperidin-4-yl)-[1,2,4]triazolo[1,5-a]pyridine] as the compound, how does the IC50 read?
Its IC50 is 12 nM.

`CCc1cc2ncnn2cc1C1CCN(S(=O)(=O)c2cnn(C)c2C(F)F)CC1` [Compound 301, 6-(1-((5-(difluoromethyl)-1-methyl-1H-pyrazol-4-yl)sulfonyl)piperidin-4-yl)-7-ethyl-[1,2,4]triazolo[1,5-a]pyridine] was tested. Which IC50 did it give?
The IC50 was 85 nM.

With `O=S(=O)(c1ccc2ncsc2c1)N1CCC(c2cc3[nH]ccc3cn2)CC1` [Compound 30, 6-((4-(1H-pyrrolo[3,2-c]pyridin-6-yl)piperidin-1-yl)sulfonyl)benzo[d]thiazole] as the compound, how does the IC50 read?
Its IC50 is over 10000 nM.

same assay, conditions: CELL LINE hM5; vs EC80 acetylcholine; read-out: IC50

Which IC50 does the source give for `Cc1cc(C(F)(F)F)ncc1C1CCN(S(=O)(=O)c2ccc3c(c2)CCO3)CC1` [Compound 399, 5-(1-((2,3-dihydrobenzofuran-5-yl)sulfonyl)piperidin-4-yl)-4-methyl-2-(trifluoromethyl)pyridine] here?
The IC50 was 3840 nM.

For `COC1(c2cn3ncnc3cc2C)CCN(S(=O)(=O)c2cnn(C)c2C)CC1` [Compound 412, 6-(1-((1,5-dimethyl-1H-pyrazol-4-yl)sulfonyl)-4-methoxypiperidin-4-yl)-7-methyl-[1,2,4]triazolo[1,5-a]pyridine], which IC50 is on record?
Its IC50 is over 10000 nM.

`CO[C@@H]1CN(S(=O)(=O)c2cnn(C)c2Cl)CC[C@H]1c1cn2ncnc2cc1C` (single isomer, unassigned) [Compound 459] was tested. Which IC50 did it give?
The IC50 was 268 nM.

For `Cc1c(S(=O)(=O)N2CCC(c3cn4ncnc4cc3C(F)F)CC2)cnn1C` [Compound 455, 7-(difluoromethyl)-6-(1-((1,5-dimethyl-1H-pyrazol-4-yl)sulfonyl)piperidin-4-yl)-[1,2,4]triazolo[1,5-a]pyridine], which IC50 is on record?
The IC50 was 63 nM.

With `[2H]C1([2H])CC(c2cn3ncnc3cc2Cl)CC([2H])([2H])N1S(=O)(=O)c1cn(C)nn1` [Compound 579, 7-chloro-6-(1-((1-methyl-1H-1,2,3-triazol-4-yl)sulfonyl)piperidin-4-yl-2,2,6,6-d4)-[1,2,4]triazolo[1,5-a]pyridine] as the compound, how does the IC50 read?
The IC50 was 29 nM.

How did the IC50 turn out when `Cc1cc2ccnn2cc1C1CCN(S(=O)(=O)c2cnn(C)c2Cl)CC1` [Compound 470, 6-(1-((5-chloro-1-methyl-1H-pyrazol-4-yl)sulfonyl)piperidin-4-yl)-5-methylpyrazolo[1,5-a]pyridine] was run?
The IC50 was 94 nM.

For `CC(=O)NCc1c(S(=O)(=O)N2CCC(c3cn4ncnc4cc3C)CC2)cnn1C` [Compound 543, N-((1-methyl-4-((4-(7-methyl-[1,2,4]triazolo[1,5-a]pyridin-6-yl)piperidin-1-yl)sulfonyl)-1H-pyrazol-5-yl)methyl)acetamide], which IC50 is on record?
Its IC50 is over 10000 nM.

For `Cn1ncc(S(=O)(=O)N2CCC(c3ccc4ncnn4c3)CC2)c1CC#N` [Compound 433, 2-(4-((4-([1,2,4]triazolo[1,5-a]pyridin-6-yl)piperidin-1-yl)sulfonyl)-1-methyl-1-pyrazol-5-yl)acetonitrile], which IC50 is on record?
Its IC50 is 3020 nM.

How did the IC50 turn out when `COC1(c2cn3ncnc3cc2C)CCN(S(=O)(=O)c2cnn3c2OCCC3)CC1` [Compound 416, 3-((4-methoxy-4-(7-methyl-[1,2,4]triazolo[1,5-a]pyridin-6-yl)piperidin-1-yl)sulfonyl)-6,7-dihydro-5H-pyrazolo[5,1-b][1,3]oxazine] was run?
Its IC50 is over 10000 nM.

`Cc1cc2ncnn2cc1C1(F)CCN(S(=O)(=O)c2cnn(C)c2Cl)CC1` [Compound 419, 6-(1-((5-chloro-1-methyl-1H-pyrazol-4-yl)sulfonyl)-4-fluoropiperidin-4-yl)-7-methyl-[1,2,4]triazolo[1,5-a]pyridine] was tested. Which IC50 did it give?
Its IC50 is 36 nM.

`Cc1cc2ncnn2cc1C1CCN(S(=O)(=O)c2cnn(C)c2CNC(=O)c2ccccn2)CC1` [Compound 554, N-((1-Methyl-4-((4-(7-methyl-[1,2,4]triazolol[1,5-a]pyridin-6-yl)piperidin-1-yl)sulfonyl)-1H-pyrazol-5-yl)methyl)picolinamide] was tested. Which IC50 did it give?
Its IC50 is 736 nM.

How did the IC50 turn out when `Cc1ncc(S(=O)(=O)N2CCC(c3cc4cccnc4cc3C)CC2)s1` [Compound 449, 2-methyl-5-((4-(7-methylquinolin-6-yl)piperidin-1-yl)sulfonyl)thiazole] was run?
Its IC50 is 2360 nM.

Which IC50 does the source give for `Cc1cnc2ccccc2c1C1=CCN(S(=O)(=O)c2cnn3c2OCCC3)CC1` [Compound 428, 3-((4-(3-methylquinolin-4-yl)-3,6-dihydropyridin-1(2H)-yl)sulfonyl)-6,7-dihydro-5H-pyrazolo[5,1-b][1,3]oxazine] here?
The IC50 was 63 nM.

For `[2H]C([2H])([2H])Oc1c(S(=O)(=O)N2CCC(c3cn4ncnc4cc3F)CC2)cnn1C` [Compound 616, 7-fluoro-6-(1-((5-(methoxy-d3)-1-methyl-1H-pyrazol-4-yl)sulfonyl)piperidin-4-yl)-[1,2,4]triazolo[1,5-a]pyridine], which IC50 is on record?
Its IC50 is 655 nM.
